{"source": "patent US11680281B2", "about": "“Biosynthetic production of steviol glycosides and processes therefore” (Conagen Inc., priority 2016, dated 2023)", "molecules": {"B1": {"name": "CP1: circular permutation of UGT76G1 enzyme (SEQ ID NO: 3) (protein)", "chain": "MNWQILKEILGKMIKQTKASSGVIWNSFKELEESELETVIREIPAPSFLIPLPKHLTASSSSLLDHDRTVFQWLDQQPPSSVLYVSFGSTSEVDEKDFLEIARGLVDSKQSFLWVVRPGFVKGSTWVEPLPDGFLGERGRIVKWVPQQEVLAHGAIGAFWTHSGWNSTLESVCEGVPMIFSDFGLDQPLNARYMSDVLKVGVYLENGWERGEIANAIRRVMVDEEGEYIRQNARVLKQKADVSLMKGGSSYESLESLVSYISSLENKTETTVRRRRRIILFPVPFQGHINPILQLANVLYSKGFSITIFHTNFNKPKTSNYPHFTFRFILDNDPQDERISNLPTHGPLAGMRIPIINEHGADELRRELELLMLASEEDEEVSCLITDALWYFAQSVADSLNLRRLVLMTSSLFNFHAHVSLPQFDELGYLDPDDKTRLEEQASGFPMLKVKDIKSAYS", "modifications": "CP1 amino acid sequence"}}, "key": {"[1]": {"assay": "Sensory evaluation (taste test) of rebaudiosides against sucrose controls", "assay_type": "in vivo", "details": "rebaudioside 300 ppm in bottled water, room temperature; vs 1.0%, 3.0%, 6.0% sucrose (w/v); panel of 13 volunteer human subjects", "method": "A sensory evaluation of rebaudiosides was performed using sucrose as a control. The sucrose sample was purchased from Sigma-Aldrich and was used to prepared control samples at three different concentrations of 1.0%, 3.0%, and 6.0% sucrose in bottled water (w/v) at room temperature. The rebaudioside was prepared at 300 ppm for sensory evaluation by adding a corresponding mass into 1000 mL of bottled water. The mixture was stirred at room temperature and the steviol glycoside sample was then evaluated against several control sucrose samples at 1.0%, 3.0%, and 6.0% by a panel of 13 volunteer human subjects."}, "[2]": {"details": "relative to table sugar (sucrose); cited from earlier work"}, "[3]": {"assay": "In vitro conversion of Reb D4 to Reb M by recombinant UGT polypeptides, HPLC analysis", "assay_type": "biochemical", "details": "10 μg polypeptide, 1 mg/ml Reb D4, 1 mM UDP-glucose, 30° C., 30 min and 1 hr; compared with UGT76G1", "method": "In this Example, to confirm the conversion of Reb D4 to rebaudioside M in vitro, the UGT76G1, CP1 and enzyme mutants were assayed using Reb D4 as the steviol glycoside substrate. The recombinant polypeptide (10 μg) was tested in a 200 μL in vitro reaction system. The reaction system contained 50 mM potassium phosphate buffer, pH 7.2, 3 mM MgCl2, 1 mg/ml steviol glycoside substrate, and 1 mM UDP-glucose. The reaction was performed at 30° C. and terminated by adding 200 μL of 1-butanol. The samples were extracted three times with 200 μL of 1-butanol. The pooled fraction was dried and dissolved in 70 μL of 80% methanol for high-performance liquid chromatography (HPLC) analysis. Rebaudioside D4 were used as substrate. HPLC analysis was performed using a Dionex UPLC ultimate 3000 system (Sunnyvale, Calif.), including a quaternary pump, a temperature controlled column compartment, an auto sampler and a UV absorbance detector. Synergi Hydro-RP column with guard column was used for the characterization of steviol glycosides. Acetonitrile in water was used for elution in HPLC analysis. The detection wavelength was 210 nm."}}, "data": [{"molecule": "C=C1C[C@@]23CC[C@H]4[C@@](C)(CCC[C@@]4(C)C(=O)OC4OC(CO)C(O)C(OC5OC(CO)C(O)C(O)C5O)C4OC4OC(CO)C(O)C(O)C4O)[C@@H]2CC[C@]1(OC1OC(CO)C(O)C(O)C1OC1OC(CO)C(O)C(O)C1O)C3", "note": "(stereo partly drawn) [Reb D4, 13-[(2-O-β-D-glucopyranosyl-β-D-glucopyranosyl)oxy] ent-kaur-16-en-19-oic acid-[(2-O-β-D-glucopyranosyl-3-O-β-D-glucopyranosyl-β-D-glucopyranosyl) ester]]", "values": [{"measurement": "Fold increase in sweetness relative to sucrose", "setting": "[1]", "result": 109, "unit": "fold"}]}, {"molecule": "C=C1C[C@@]23CC[C@H]4[C@@](C)(CCC[C@@]4(C)C(=O)OC4OC(CO)C(O)C(OC5OC(CO)C(O)C(O)C5O)C4OC4OC(CO)C(O)C(O)C4O)[C@@H]2CC[C@]1(O)C3", "note": "(some centres unmarked) [Reb WB2]", "values": [{"measurement": "Fold increase in sweetness relative to sucrose", "setting": "[1]", "result": 79, "unit": "fold"}]}, {"molecule": "C=C1C[C@@]23CC[C@H]4[C@@](C)(CCC[C@@]4(C)C(=O)OC4OC(CO)C(O)C(OC5OC(CO)C(O)C(O)C5O)C4OC4OC(CO)C(O)C(O)C4O)[C@@H]2CC[C@]1(OC1OC(CO)C(O)C(O)C1O)C3", "note": "(some centres unmarked) [Reb WB1]", "values": [{"measurement": "Fold increase in sweetness relative to sucrose", "setting": "[1]", "result": 133, "unit": "fold"}]}, {"molecule": "C=C1C[C@@]23CC[C@H]4[C@@](C)(CCC[C@@]4(C)C(=O)O[C@@H]4O[C@H](CO)[C@@H](O)[C@H](O)[C@H]4O)[C@@H]2CC[C@]1(O[C@@H]1O[C@H](CO)[C@@H](O)[C@H](O)[C@H]1O[C@@H]1O[C@H](CO)[C@@H](O)[C@H](O)[C@H]1O)C3", "note": "[stevioside]", "values": [{"measurement": "sweetness relative to sucrose (times sweeter than sucrose)", "setting": "[2]", "result": "100-150 times"}]}, {"molecule": "B1", "values": [{"measurement": "enzymatic activity, transfer of one glucose to Reb D4 to form Reb M", "setting": "[3]", "result": "significantly higher enzymatic activity than UGT76G1"}]}]}
